This is an account of results in patent US20230115907A1, “HETEROCYCLIC COMPOUND AND PHARMACEUTICAL COMPOSITION, PREPARATION METHOD, INTERMEDIATE AND USE THEREOF” (EVOPOINT BIOSCIENCES CO., LTD., priority 2019, published 2023).

One assay relates to HCC70 cells. The assay can be described thus: Inhibition of cell proliferation, CellTiter-Glo, HCC70. In kind it is cell-based. To be noted: Homo sapiens, HCC70, 72 h, Efficacy Example 2 (Table 2), 72 h incubation. Here is the method: (§1) The compounds were each prepared with 100% DMSO into 10 mM mother liquor.
(§2) HCC70 cells and OVCAR3 cells were digested and counted. Cells were diluted to an appropriate concentration according to cell density. 100 μL of cells were added to each well of a 96-well plate. Medium wells served as blank control (Min). The cells were incubated overnight in an incubator at 37° C./5% CO2.
(§3) A 200-fold stock solution of a compound was prepared with DMSO, and the compound was diluted with growth medium to a 3-fold stock solution, i.e., […] of each of 200-fold stock solutions of compound at different concentrations was added to 197 μL of medium. 50 μL of diluted compound was added to each well and the mixture was incubated at 37° C./5% CO2 for 72 h.
(§4) The 96-well plate was equilibrated to room temperature before detection. 40 μL of CellTiter-Glo solution was added to each well. The mixture was mixed for 2 min using a horizontal shaker to induce cell lysis. The mixture was incubated at room temperature for 60 min to stabilize […] signals. Fluorescence values were read on ENVISION.
(§5) (1) Data was analyzed by GraphPad Prism 5
(§6) (2) % inhibition rate=(maximum signal−compound signal)/(maximum signal−minimum signal)×100
(§7) (3) Maximum signal: signal of DMSO well
(§8) (4) Minimum signal: signal of medium well
(§9) The effect of SZ-015200, SZ-015256 and SZ-015268 on cell proliferation after incubation with HCC70, OVCAR-3, HCT116 and HCC1806 cells for 3 days was detected according to the method described in Efficacy Example 2, and the results are shown in Table 3.
Background: In ATP-based viability assays light output follows the ATP content of the culture.

The subject of a further assay is OVCAR3 cells. Nature of the assay: Inhibition of cell proliferation, CellTiter-Glo, OVCAR3. In kind it is cell-based. To be noted: Homo sapiens, OVCAR-3, 72 h, Efficacy Example 2 (Table 2), 72 h incubation. Here is the method:
as §1, §2, §3, §4, §5, §6, §7, §8, §9

pIC50: −log10 of the molar value.

In general, pIC50 refers to the negative decadic logarithm of the IC50, by convention in mol/L. Low values mean a high IC50, high ones a low IC50.

As for `Cc1nc(NC2CCN(C(=O)OC3CN(C(=O)/C=C/CN(C)C)C3)CC2)c2ncn(C(C)C)c2n1` [SZ-015308, (E)-1-(4-(dimethylamino)but-2-enoyl)azetidin-3-yl 4-((9-isopropyl-2-methyl-9H-purin-6-yl)amino)piperidine-1-carboxylate], in the assay with HCC70 cells, the pIC50 was 7.04.

Take `COCCNc1cc(NC2CCN(C(=O)O[C@H]3CCN(C(=O)/C=C/CN(C)C)C3)CC2)c2ncn(C(C)C)c2n1` [SZ-015311, (S,E)-1-(4-(dimethylamino)but-2-enoyl)pyrrolidin-3-yl 4-((3-isopropyl-5-((2-methoxyethyl)amino)-3H-imidazo[4,5-b]pyridin-7-yl)amino)piperidine-1-carboxylate]: the results for the pIC50 with HCC70 cells and with OVCAR3 cells were 7.02 and 7.00, respectively.

In the case of `Cc1nc(NC2CCN(C(=O)O[C@H]3CCN(C(=O)/C=C/CN(C)C)C3)CC2)c2ncn(C(C)C)c2n1` [SZ-015264, (S,E)-1-(4-(dimethylamino)but-2-enoyl)pyrrolidin-3-yl 4-((9-isopropyl-2-methyl-9H-purin-6-yl)amino)piperidine-1-carboxylate], the pIC50 with HCC70 cells was 6.74; in the assay on OVCAR3 cells, 6.63.

With `CC(C)c1cn2c(C(C)C)cnc2c(NC2CCN(C(=O)O[C@H]3CCN(C(=O)/C=C/CN(C)C)C3)CC2)n1` [SZ-015342, (S,E)-1-(4-(dimethylamino)but-2-enoyl)pyrrolidin-3-yl 4-((3,6-diisopropylimidazo[1,2-a]pyrazin-8-yl)amino)piperidine-1-carboxylate], the pIC50 with HCC70 cells is 6.38; in the assay with OVCAR3 cells, 6.69.

For `Cc1nc(NC2CCN(C(=O)O[C@@H]3CCN(C(=O)/C=C/CN(C)C)C3)CC2)n2ncc(C(C)C)c2n1` [SZ-015282, (R,E)-1-(4-(dimethylamino)but-2-enoyl)pyrrolidin-3-yl 4-((8-isopropyl-2-methylpyrazolo[1,5-a][1,3,5]triazin-4-yl)amino)piperidine-1-carboxylate], the pIC50 in the assay with HCC70 cells was 7.08; in the assay with OVCAR3 cells it was 7.04.

On to `CC(C)c1cnn2c(NCc3ccccc3)cc(NC[C@H]3CCNC[C@@H]3O)nc12` [CT7001, reference compound], for which the pIC50 in the assay on HCC70 cells is 6.51; with OVCAR3 cells it was 6.33.

For the compound `CC(C)c1nc(NC2CCN(C(=O)O[C@H]3CCN(C(=O)/C=C/CN(C)C)C3)CC2)c2ncc(C(C)C)n2n1` [SZ-015339, (S,E)-1-(4-(dimethylamino)but-2-enoyl)pyrrolidin-3-yl 4-((2,7-diisopropylimidazo[2,1-f][1,2,4]triazin-4-yl)amino)piperidine-1-carboxylate], the pIC50 in the assay on HCC70 cells was 7.26; in the assay with OVCAR3 cells it was 7.19.

`CC(C)Nc1nc(NC2CCN(C(=O)O[C@H]3CCN(C(=O)/C=C/CN(C)C)C3)CC2)n2ncc(C(C)C)c2n1` [SZ-015330, (S,E)-1-(4-(dimethylamino)but-2-enoyl)pyrrolidin-3-yl 4-((8-isopropyl-2-(isopropylamino)pyrazolo[1,5-a][1,3,5]triazin-4-yl)amino)piperidine-1-carboxylate]: the figures for the pIC50 in the assay with HCC70 cells and with OVCAR3 cells were 7.21 and 7.36, respectively.

For `CC(C)Oc1nc(NC2CCN(C(=O)O[C@H]3CCN(C(=O)/C=C/CN(C)C)C3)CC2)n2ncc(C(C)C)c2n1` [SZ-015332, (S,E)-1-(4-(dimethylamino)but-2-enoyl)pyrrolidin-3-yl 4-((2-isopropoxy-8-isopropylpyrazolo[1,5-a][1,3,5]triazin-4-yl)amino)piperidine-1-carboxylate], the values for the pIC50 in the assay with HCC70 cells and with OVCAR3 cells were 7.29 and 7.35, respectively.

Consider `CC(C)Nc1cc(NC2CCN(C(=O)O[C@H]3CCN(C(=O)/C=C/CN(C)C)C3)CC2)c2ncn(C(C)C)c2n1` [SZ-015303, (S,E)-1-(4-(dimethylamino)but-2-enoyl)pyrrolidin-3-yl 4-((3-isopropyl-5-(isopropylamino)-3H-imidazo[4,5-b]pyridin-7-yl)amino)piperidine-1-carboxylate], for which the values for the pIC50 in the assay on HCC70 cells and in the assay on OVCAR3 cells were 6.89 and 6.94, respectively.

As to `CC[C@H](CO)Nc1nc(NC2CCN(C(=O)O[C@H]3CCN(C(=O)/C=C/CN(C)C)C3)CC2)n2ncc(C(C)C)c2n1` [SZ-015326, (S)-1-((E)-4-(dimethylamino)but-2-enoyl)pyrrolidin-3-yl 4-((2-(((R)-1-hydroxybutan-2-yl)amino)-8-isopropylpyrazolo[1,5-a][1,3,5]triazin-4-yl)amino)piperidine-1-carboxylate], the pIC50 with HCC70 cells was 7.30; in the assay with OVCAR3 cells, 7.48.

`CC(C)c1cc(NC2CCN(C(=O)O[C@H]3CCN(C(=O)/C=C/CN(C)C)C3)CC2)c2ncn(C(C)C)c2n1` [SZ-015319, (S,E)-1-(4-(dimethylamino)but-2-enoyl)pyrrolidin-3-yl 4-((3,5-diisopropyl-3H-imidazo[4,5-b]pyridin-7-yl)amino)piperidine-1-carboxylate]: the pIC50 with HCC70 cells is 7.30; with OVCAR3 cells, 7.14.

With `CC(C)Oc1nc(NC2CCN(C(=O)O[C@H]3CCN(C(=O)/C=C/CN(C)C)C3)CC2)c2ncc(C(C)C)n2n1` [SZ-015346, (S,E)-1-(4-(dimethylamino)but-2-enoyl)pyrrolidin-3-yl 4-((2-isopropoxy-7-isopropylimidazo[2,1-f][1,2,4]triazin-4-yl)amino)piperidine-1-carboxylate], the negative-log IC50 (pIC50) in the assay on HCC70 cells is 6.86; in the assay on OVCAR3 cells, 7.31.

As for `CCn1cnc2c(NC3CCN(C(=O)O[C@H]4CCN(C(=O)/C=C/CN(C)C)C4)CC3)ccnc21` [SZ-015285, (S,E)-1-(4-(dimethylamino)but-2-enoyl)pyrrolidin-3-yl 4-((3-ethyl-3H-imidazo[4,5-b]pyridin-7-yl)amino)piperidine-1-carboxylate], the pIC50 is 5.98 in the assay with HCC70 cells and 6.21 with OVCAR3 cells.

`CCc1nc(NC2CCN(C(=O)O[C@H]3CCN(C(=O)/C=C/CN(C)C)C3)CC2)c2ncn(C(C)C)c2n1` [SZ-015310, (S,E)-1-(4-(dimethylamino)but-2-enoyl)pyrrolidin-3-yl 4-((2-ethyl-9-isopropyl-9H-purin-6-yl)amino)piperidine-1-carboxylate]: the values for the pIC50 in the assay on HCC70 cells and in the assay with OVCAR3 cells were 7.53 and 7.23, respectively.

As for `CC[C@H](CO)Nc1cc(NC2CCN(C(=O)O[C@H]3CCN(C(=O)/C=C/CN(C)C)C3)CC2)c2ncn(C(C)C)c2n1` [SZ-015306, (S)-1-((E)-4-(dimethylamino)but-2-enoyl)pyrrolidin-3-yl 4-((5-(((R)-1-hydroxybutan-2-yl)amino)-3-isopropyl-3H-imidazo[4,5-b]pyridin-7-yl)amino)piperidine-1-carboxylate], the values for the pIC50 in the assay with HCC70 cells and in the assay with OVCAR3 cells were 6.69 and 6.55, respectively.

Regarding `Cc1cc(NC2CCN(C(=O)OC3CN(C(=O)/C=C/CN(C)C)C3)CC2)c2ncn(C(C)C)c2n1` [SZ-015307, (E)-1-(4-(dimethylamino)but-2-enoyl)azetidin-3-yl 4-((3-isopropyl-5-methyl-3H-imidazo[4,5-b]pyridin-7-yl)amino)piperidine-1-carboxylate], the pIC50 in the assay on HCC70 cells is 7.11; with OVCAR3 cells, 6.86.

For `CC(C)c1cnc2c(NC3CCN(C(=O)O[C@H]4CCN(C(=O)/C=C/CN(C)C)C4)CC3)nc(C3CC3)nn12` [SZ-015338, (S,E)-1-(4-(dimethylamino)but-2-enoyl)pyrrolidin-3-yl 4-((2-cyclopropyl-7-isopropylimidazo[2,1-f][1,2,4]triazin-4-yl)amino)piperidine-1-carboxylate], the pIC50 is 7.31 in the assay on HCC70 cells and 7.53 in the assay on OVCAR3 cells.

For `CC[C@H](CO)Nc1nc(NC2CCN(C(=O)O[C@H]3CCN(C(=O)/C=C/CN(C)C)C3)CC2)c2ncn(C(C)C)c2n1` [SZ-015295, (S)-1-((E)-4-(dimethylamino)but-2-enoyl)pyrrolidin-3-yl 4-((2-(((R)-1-hydroxybutan-2-yl)amino)-9-isopropyl-9H-purin-6-yl)amino)piperidine-1-carboxylate], the pIC50 was 6.96 with HCC70 cells and 7.20 in the assay with OVCAR3 cells.

On to `CC(C)n1cnc2c(NC3CCN(C(=O)O[C@H]4CCN(C(=O)/C=C/CN(C)C)C4)CC3)nc(-c3cn[nH]c3)nc21` [SZ-015298, (S,E)-1-(4-(dimethylamino)but-2-enoyl)pyrrolidin-3-yl 4-((9-isopropyl-2-(1H-pyrazol-4-yl)-9H-purin-6-yl)amino)piperidine-1-carboxylate], for which the pIC50 in the assay on HCC70 cells is 6.39.

As for `CC#CC(=O)N1CC[C@H](OC(=O)N2CCC(Nc3cc(C)nc4c3ncn4C(C)C)CC2)C1` [SZ-015289, (S)-1-(but-2-ynoyl)tetrahydropyrrol-3-yl 4-((3-isopropyl-5-methyl-3H-imidazo[4,5-b]pyridin-7-yl)amino)piperidine-1-carboxylate], the pIC50 in the assay with HCC70 cells was 6.93.

As to `CC#CC(=O)N1CC[C@@H](OC(=O)N2CCC(Nc3cc(C)nc4c3ncn4C(C)C)CC2)C1` [SZ-015284, (R)-1-(but-2-ynoyl)tetrahydropyrrol-3-yl 4-((3-isopropyl-5-methyl-3H-imidazo[4,5-b]pyridin-7-yl)amino)piperidine-1-carboxylate], the pIC50 with HCC70 cells is 7.01.
